Experimental data from patent US9540648B2, “Therapeutic use of activators of zinc finger protein GL13” (Universität Leipzig, priority 2012, dated 2017).

How the values were obtained:
mouse hepatocytes = assay: Cyclopamine: accumulation of neutral lipids in cultured mouse hepatocytes (Nile red staining); assay type: cell-based; conditions: 10 μM cyclopamine, 72 h
Procedure: (§1) Cyclopamine (Sigma) was dissolved in DMSO (10 mM). Mouse and human hepatocytes were incubated for 72 h in the presence of 10 μM Cyclopamine. Control cultures were incubated with culture medium containing vehicle (0.1% DMSO).
(§2) Fluorescent staining of neutral lipids in hepatocytes was performed using Nile red (Biomol). Hepatocytes were fixed with 4% buffered paraformaldehyde for 10 min. For Nile red staining, a 200 nM working solution in phosphate-buffered saline (PBS) was prepared from a 1 mM stock solution in DMSO and was added directly to the fixed cells. After 20 min of incubation at room temperature cells were washed in PBS. Nuclei were counterstained with DAPI (Sigma).
(§3) Primary hepatocytes from SLC mice were isolated by collagenase perfusion of the liver. Cell suspension was carefully cleared from non-parenchymal cells by differential centrifugation. Finally, hepatocytes were suspended in Williams Medium E containing 10% fetal calf serum and further additions as described (Klingmüller et al., 2006), and were plated onto 6-well or 12-well plates precoated with collagen type I (Klingmüller et al., 2006; Gebhardt et al., 1982). After 4 h, serum-free medium was used throughout cultivation. Cryopreserved human hepatocytes were purchased from TebuBio (Offenbach, Germany). […]

human hepatocytes = assay: Cyclopamine: accumulation of neutral lipids in cultured human hepatocytes (Nile red staining); assay type: cell-based; conditions: 10 μM cyclopamine, 72 h
Procedure: as §1, §2, §3

C57Bl/6-N hepatocytes [1] = assay: Silencing of GLI family members by siRNA in hepatocytes, gene expression by qRT-PCR; assay type: cell-based, murine; conditions: for expression of lipogenic transcription factor Srebp1 (mRNA): FIG. 5
Source text: Total RNA from hepatocytes, liver tissue and other organs was extracted using TRIzol (Peqlab, Erlangen). Total RNA from adipose tissue was extracted using the RNeasy Lipid Tissue mini Kit (Quiagen, Hilden). RNA was reverse transcribed using oligo(dt) primers and IM Promm II reverse transcriptase (Promega). The resulting cDNA samples were then quantified for each test gene using target gene-specific primers designed using the online tools Universal ProbeLibrary Probe-Finder software, Perl Primer and Primer 3.
(§4) The levels of all mRNA transcripts were determined in duplicate by qRT-PCR using the Light Cycler® 2.0 Instrument and the LightCycler® FastStart DNA Master PLUS SYBR Green I (Roche). Using the standard curve method, the absolute quantitation of specific PCR products for each primer set was generated. For normalization, β-actin was amplified from each sample.
To analyze the role of GLI family members in C57Bl/6-N hepatocytes on gene expression, murine hepatocytes were isolated and cultured for 72 h upon transfection with siRNA silencing either GLI1, GLI2 or GLI3.
GLI1-, GLI2- and GLI3-specific siRNAs and respective scrambled control siRNAs were purchased from Invitrogen. The following double stranded siRNAs were used for inhibition of GLI1, GLI2 and GLI3:
(§5) Freshly isolated hepatocytes were seeded at a density of 100.000 cells per well of 12-well plates in normal culture medium containing 10% FCS. After 4 h, serum-free medium was used and chemically synthesized siRNAs ([…] for GLI2 and GLI3, 50 nM for GLI1) were transfected with Interferin from Peqlab (Erlangen) according to the manufacturer's instructions. Twenty-four hours after transfection, the medium was changed and fresh medium without siRNA was added. Changes in gene expression were analyzed by qRT PCR at different time points up to 72 h post-transfection as indicated in figure legends using primers as described above in Example 2 and the following additional primers: […]

C57Bl/6-N hepatocytes [2] = assay: Oil red O staining of neutral lipids in cultured hepatocytes transfected with GLI siRNA; assay type: cell-based, murine; conditions: 72 h after siRNA transfection, FIG. 8
Procedure: FIG. 8 Staining of neutral lipids by Oil red O in cultured hepatocytes transfected with a) mock, b) GLI1 siRNA, c) GLI2 siRNA and d) GLI3 siRNA determined after 72 h.
as §5
On the contrary neither GLI1 siRNA (FIG. 8b) nor GLI2 siRNA (FIG. 8c) was capable of mediating this effect.

[3] = system: murine C57BL/6-N hepatocytes; assay: Silencing of Sufu by siRNA in hepatocytes, gene expression by real time PCR; assay type: cell-based
Procedure: as §4, §5
Sufu is a known inhibitor of hedgehog signalling. The transfection of hepatocytes with siRNA and real time PCR was performed as described in Example 3. The following additional primers were used: […]

Question: How did the “steatosis (accumulation of neutral lipids)” value (mouse hepatocytes) turn out when `CC1=C2C[C@H]3[C@@H](CC=C4C[C@@H](O)CC[C@@]43C)[C@@H]2CC[C@]12O[C@@H]1C[C@H](C)CN[C@H]1[C@H]2C` [cyclopamine, Cyclopamine] was run?
Answer: Its value is “marked steatosis”.

Question: What about the “steatosis (accumulation of neutral lipids)” value (human hepatocytes) of the same molecule?
Answer: Its value is “marked steatosis”.

Question: How did the “expression of lipogenic transcription factor Srebp1 (mRNA)” value (C57Bl/6-N hepatocytes [1]; siRNA vs nonsense RNA control) turn out when “GLI1 siRNA: double stranded siRNA for inhibition of GLI1, SEQ ID No. 1 and 2, purchased from Invitrogen (chain 1 UGGAGAACCUUAGGCUGGAUCAGCU; chain 2 AGCUGAUCCAGCCUAAGGUUCUCCA; listed as RNA, chemistry not given here)” was run?
Answer: The value was “not”.

Question: And the “accumulation of fat droplets (Oil red O staining of neutral lipids)” value (“accumulation of fat droplets” for short) (C57Bl/6-N hepatocytes [2])?
Answer: The value was “comparable phenotype as wild type hepatocytes”.

Question: How did the “expression of lipogenic transcription factor Srebp1 (mRNA)” value (C57Bl/6-N hepatocytes [1]; siRNA vs nonsense RNA control) turn out when “GLI2 siRNA: double stranded siRNA for inhibition of GLI2, SEQ ID No. 3 and 4, purchased from Invitrogen (chain 1 CCACAACCACAACGUUGCUCAGACA; chain 2 UGUCUGAGCAAGCUUGUGGUUGUGG; listed as RNA, chemistry not given here)” was run?
Answer: The value was “not”.

Question: And the “accumulation of fat droplets” value (C57Bl/6-N hepatocytes [2])?
Answer: The value was “comparable phenotype as wild type hepatocytes”.

Question: “GLI3 siRNA: double stranded siRNA for inhibition of GLI3, SEQ ID No. 5 and 6, purchased from Invitrogen (chain 1 UAGCAAGGCCAUCUUGGUCUUCAGG; chain 2 CCUGAAGACCAAGAUGGCCUUGCUA; listed as RNA, chemistry not given here)” was tested. Which “IGF1 mRNA” value (C57Bl/6-N hepatocytes [1]; Gli siRNA, FIG. 23A) did it give?
Answer: The value was “downregulates”.

Question: And the “IGFBP1 mRNA” value (C57Bl/6-N hepatocytes [1]; Gli siRNA, FIG. 23B)?
Answer: Its value is “upregulated”.

Question: And the “expression of lipogenic transcription factor PPAR-γ (mRNA)” value (C57Bl/6-N hepatocytes [1]; siRNA vs nonsense RNA control, FIG. 4)?
Answer: Its value is “significantly increased”.

Question: What about the “expression of lipogenic transcription factor Srebp1 (mRNA)” value (C57Bl/6-N hepatocytes [1]; siRNA vs nonsense RNA control) of the same molecule?
Answer: The value was “significantly increased”.

Question: And the “expression of lipogenic enzyme ELOVL fatty acid elongase 6 (Elovl6)” value (C57Bl/6-N hepatocytes [1]; siRNA vs nonsense RNA control, FIG. 6)?
Answer: Its value is “increased expression”.

Question: What about the “expression of lipogenic enzyme fatty acid synthase (Fasn)” value (C57Bl/6-N hepatocytes [1]; siRNA vs nonsense RNA control, FIG. 7) of the same molecule?
Answer: The value was “increased expression”.

Question: What about the “accumulation of fat droplets” value (C57Bl/6-N hepatocytes [2]) of the same molecule?
Answer: The value was “pronounced accumulation of fat droplets”.

Question: For “Sufu siRNA: double stranded siRNA inhibiting Sufu, SEQ ID No. 7 and 8; preferred GLI3 activating siRNA (chain 1 CCCUUGGACUAUGUUAGCAUGUACA; chain 2 UGUACAUGCUAACAUAGUCCAAGGG; listed as RNA, chemistry not given here)”, which “expression of GLI2” value ([3]; FIG. 9) is on record?
Answer: Its value is “increased expression”.

Question: And the “expression of GLI3” value ([3]; FIG. 9)?
Answer: The value was “increased expression”.

Question: What about the “expression of Indian hedgehog (IHH)” value ([3]; FIG. 9) of the same molecule?
Answer: The value was “increased expression”.

Question: What about the “silencing of Sufu” value ([3]; FIG. 9) of the same molecule?
Answer: The value was “Successful silencing”.

Question: What about the “expression of GATA4” value ([3]; FIG. 10) of the same molecule?
Answer: The value was “increased expression”.

Question: And the “hepatocellular expression of PPAR-γ” value ([3]; FIG. 10)?
Answer: Its value is “reduced”.

Question: And the “hepatocellular expression of Srebp1” value ([3]; FIG. 10)?
Answer: Its value is “reduced”.

Question: What about the “expression of Cyp17A1” value ([3]; FIG. 19) of the same molecule?
Answer: The value was “decreased expression”.
